Experimental data published in US20170334899A1, “AMINO-SUBSTITUTED ISOTHIAZOLES” (Bayer Pharma Aktiengesellschaft, priority 2014, published 2017).

test system: human cervical tumor cell line HeLa (ATCC CCL-2); assay: SAC-Formation - Nocodazole-Induced Assay; assay type: cell-based; details: Homo sapiens, HeLa, 24 h, HeLa cells, nocodazole 0.1 μg/ml together with test compound, decrease of mitotic cells (phospho-histone H3 Ser10)
Procedure, shortened: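 Loss of phospho-histone H3 Ser10-positive cells, counted against Hoechst-stained nuclei by high-content imaging, marked mitotic breakthrough. Compounds (0.005–20 μM, 0.5% DMSO) were co-dosed with 0.1 μg/ml nocodazole onto HeLa cells for 24 h at 37 °C. Curves were fitted with a four-parameter Hill equation.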

`Cc1nsc(Nc2ccc(C#N)cn2)c1C(=O)Nc1ccc(OC2CCNCC2)nc1` [Example 28, 5-[(5-Cyanopyridin-2-yl)amino]-3-methyl-N-[6-(piperidin-4-yloxy)pyridin-3-yl]-1,2-thiazole-4-carboxannide] and `Cc1nsc(Nc2ccc(C#N)cn2)c1C(=O)Nc1ccc(OC2CCN(CCF)CC2)nc1` [Example 29, 5-[(5-Cyanopyridin-2-yl)amino]-N-(6-{[1-(2-fluoroethyl)piperidin-4-yl]oxy}pyridin-3-yl)-3-methyl-1,2-thiazole-4-carboxamide] are within 1.5-fold of each other in IC50: 11 µM for the first, 16 µM for the second.

Going from `Cc1nsc(Nc2cnc3ccccc3n2)c1C(=O)Nc1ccc(OC2CCCNC2)nc1` (stereo not shown) [Example 32, 3-Methyl-N-[6-(piperidin-3-yloxy)pyridin-3-yl]-5-(quinoxalin-2-ylamino)-1,2-thiazole-4-carboxannide] to `Cc1nsc(Nc2cnc3ccccc3n2)c1C(=O)Nc1ccc(OC2CCCN(CC(F)F)C2)nc1` (stereo not shown) [Example 33, N-(6-{[1-(2,2-Difluoroethyl)piperidin-3-yl]oxy}pyridin-3-yl)-3-methyl-5-(quinoxalin-2-ylamino)-1,2-thiazole-4-carboxamide], the IC50 falls from 4 µM to 1.4 µM (2.9-fold).

Going from `Cc1nsc(Nc2cc(C#N)ccn2)c1C(=O)Nc1ccc(OC2CCCN(C(=O)OC(C)(C)C)C2)nc1` (stereo not shown) [Example 34, tert-Butyl 3({5-[({5-[(4-cyanopyridin-2-yl)amino]-3-methyl-1,2-thiazol-4-yl}-carbonyl)amino]pyridin-2-yl}oxy)piperidine-1-carboxylate] to `Cc1nsc(Nc2cnc(C(F)(F)F)cn2)c1C(=O)Nc1ccc(OC2CCCN(CC(F)F)C2)nc1` (stereo not shown) [Example 330, N-(6-{[1-(2,2-difluoroethyl)piperidin-3-yl]oxy}pyridin-3-yl)-3-methyl-5-{[5-(trifluoromethyl)pyrazin-2-yl]amino}-1,2-thiazole-4-carboxamide], the IC50 falls from 0.28 µM to 0.023 µM (12-fold). The second is the more potent here.

Compared with `Cc1nsc(Nc2cnc(C(F)(F)F)cn2)c1C(=O)Nc1ccc(OCCNCCC(F)(F)F)nc1` [Example 323, 3-methyl-5-{[5-(trifluoromethyl)pyrazin-2-yl]amino}-N-(6-{2-[(3,3,3-trifluoropropyl)amino]ethoxy}pyridin-3-yl)-1,2-thiazole-4-carboxamide], `Cc1nsc(Nc2cnc(C(F)(F)F)cn2)c1C(=O)Nc1ccc(OCC2CCCN(CCC(F)(F)F)C2)nc1` (stereo not shown) [Example 328, 3-methyl-5-{[5-(trifluoromethyl)pyrazin-2-yl]amino}-N-(6-{[1-(3,3,3-trifluoropropyl)piperidin-3-yl]methoxy}pyridin-3-yl)-1,2-thiazole-4-carboxamide] is 17-fold lower in IC50: 0.03 µM for the first, 0.0018 µM for the second. The second is the more potent here.

`Cc1nsc(Nc2cnc(C(F)(F)F)cn2)c1C(=O)Nc1ccc(OC2CCN(C(CF)CF)CC2)nc1` [Example 324, N-(6-{[1-(1,3-difluoropropan-2-yl)piperidin-4-yl]oxy}pyridin-3-yl)-3-methyl-5-{[5-(trifluoromethyl)pyrazin-2-yl]amino}-1,2-thiazole-4-carboxamide] and `Cc1nsc(Nc2cnc(C(F)(F)F)cn2)c1C(=O)Nc1ccc(OC2CCCN(C(CF)CF)C2)nc1` (stereo not shown) [Example 333, N-(6-{[1-(1,3-difluoropropan-2-yl)piperidin-3-yl]oxy}pyridin-3-yl)-3-methyl-5-{[5-(trifluoromethyl)pyrazin-2-yl]amino}-1,2-thiazole-4-carboxamide] are within 1.5-fold of each other in IC50: 0.071 µM for the first, 0.073 µM for the second.

Going from `Cc1nsc(Nc2cnc(C(F)(F)F)cn2)c1C(=O)Nc1ccc(OCC2CCCN(CCF)C2)nc1` (stereo not shown) [Example 325, N-(6-{[1-(2-fluoroethyl)piperidin-3-yl]methoxy}pyridin-3-yl)-3-methyl-5-{[5-(trifluoromethyl)pyrazin-2-yl]amino}-1,2-thiazole-4-carboxamide] to `Cc1nsc(Nc2cnc(C(F)(F)F)cn2)c1C(=O)Nc1ccc(OCC2CCCN(CC(F)F)C2)nc1` (stereo not shown) [Example 327, N-(6-{[1-(2,2-difluoroethyl)piperidin-3-yl]methoxy}pyridin-3-yl)-3-methyl-5-{[5-(trifluoromethyl)pyrazin-2-yl]amino}-1,2-thiazole-4-carboxamide], the IC50 falls from 0.11 µM to 0.0063 µM (17-fold).

Going from `Cc1nsc(Nc2cnc(C(F)(F)F)cn2)c1C(=O)Nc1ccc(OCC2CCCN(CC(F)(F)F)C2)nc1` (stereo not shown) [Example 326, 3-methyl-N-(6-{[1-(2,2,2-trifluoroethyl)piperidin-3-yl]methoxy}pyridin-3-yl)-5-{[5-(trifluoromethyl)pyrazin-2-yl]amino}-1,2-thiazole-4-carboxamide] to `Cc1nsc(Nc2cnc(C(F)(F)F)cn2)c1C(=O)Nc1ccc(OCC2CCN(CC(F)(F)F)CC2)nc1` [Example 346, 3-methyl-N-(6-{[1-(2,2,2-trifluoroethyl)piperidin-4-yl]methoxy}pyridin-3-yl)-5-{[5-(trifluoromethyl)pyrazin-2-yl]amino}-1,2-thiazole-4-carboxamide], the IC50 rises from 0.0056 µM to 0.033 µM (5.9-fold). The first is the more potent here.

Compared with `Cc1nsc(Nc2cnc(C(F)(F)F)cn2)c1C(=O)Nc1ccc(OC2CCCN(CCF)C2)nc1` (stereo not shown) [Example 329, N-(6-{[1-(2-fluoroethyl)piperidin-3-yl]oxy}pyridin-3-yl)-3-methyl-5-{[5-(trifluoromethyl)pyrazin-2-yl]amino}-1,2-thiazole-4-carboxamide], `Cc1nsc(Nc2cnc(C(F)(F)F)cn2)c1C(=O)Nc1ccc(OC2CCCN(CCC(F)(F)F)C2)nc1` (stereo not shown) [Example 332, 3-methyl-5-{[5-(trifluoromethyl)pyrazin-2-yl]amino}-N-(6-{[1-(3,3,3-trifluoropropyl)piperidin-3-yl]oxy}pyridin-3-yl)-1,2-thiazole-4-carboxamide] is 4.9-fold lower in IC50: 0.035 µM for the first, 0.0071 µM for the second.

Going from `Cc1nsc(Nc2cnc(C(F)(F)F)cn2)c1C(=O)Nc1ccc(OC2CCCN(CC(F)(F)F)C2)nc1` (stereo not shown) [Example 331, 3-methyl-N-(6-{[1-(2,2,2-trifluoroethyl)piperidin-3-yl]oxy}pyridin-3-yl)-5-{[5-(trifluoromethyl)pyrazin-2-yl]amino}-1,2-thiazole-4-carboxamide] to `Cc1nsc(Nc2cnc(C(F)(F)F)cn2)c1C(=O)Nc1ccc(F)c(OCC2CCCN(CC(F)(F)F)C2)c1` (stereo not shown) [Example 337, N-(4-fluoro-3-{[1-(2,2,2-trifluoroethyl)piperidin-3-yl]methoxy}phenyl)-3-methyl-5-{[5-(trifluoromethyl)pyrazin-2-yl]amino}-1,2-thiazole-4-carboxamide], the IC50 rises from 0.0062 µM to 0.061 µM (9.8-fold).

Compared with `Cc1nsc(Nc2cnc(C(F)(F)F)cn2)c1C(=O)Nc1ccc(F)c(OCC2CCCN(CC(F)F)C2)c1` (stereo not shown) [Example 334, N-(3-{[1-(2,2-difluoroethyl)piperidin-3-yl]methoxy}-4-fluorophenyl)-3-methyl-5-{[5-(trifluoromethyl)pyrazin-2-yl]amino}-1,2-thiazole-4-carboxamide], `Cc1nsc(Nc2cnc(C(F)(F)F)cn2)c1C(=O)Nc1ccc(F)c(OC[C@@H]2CCCN(CC(F)F)C2)c1` [Example 341, N-(3-{[(3R)-1-(2,2-difluoroethyl)piperidin-3-yl]methoxy}-4-fluorophenyl)-3-methyl-5-{[5-(trifluoromethyl)pyrazin-2-yl]amino}-1,2-thiazole-4-carboxamide] is 1.7-fold lower in IC50: 0.047 µM for the first, 0.027 µM for the second.

Compared with `Cc1nsc(Nc2cnc(C(F)(F)F)cn2)c1C(=O)Nc1ccc(F)c(OCC2CCCN(CCF)C2)c1` (stereo not shown) [Example 336, N-(4-fluoro-3-{[1-(2-fluoroethyl)piperidin-3-yl]methoxy}phenyl)-3-methyl-5-{[5-(trifluoromethyl)pyrazin-2-yl]amino}-1,2-thiazole-4-carboxamide], `Cc1nsc(Nc2cnc(C(F)(F)F)cn2)c1C(=O)Nc1ccc(F)c(OCC2CCCN(CCC(F)(F)F)C2)c1` (stereo not shown) [Example 338, N-(4-fluoro-3-{[1-(3,3,3-trifluoropropyl)piperidin-3-yl]methoxy}phenyl)-3-methyl-5-{[5-(trifluoromethyl)pyrazin-2-yl]amino}-1,2-thiazole-4-carboxamide] is 1.8-fold lower in IC50: 0.049 µM for the first, 0.027 µM for the second. The second is the more potent here.

First: Cc1nsc(Nc2cnc(C(F)(F)F)cn2)c1C(=O)Nc1ccc(F)c(OC[C@@H]2CCN(CC(F)(F)F)C2)c1 [Example 339, N-(4-fluoro-3-{[(3R)-1-(2,2,2-trifluoroethyl)pyrrolidin-3-yl]methoxy}phenyl)-3-methyl-5-{[5-(trifluoromethyl)pyrazin-2-yl]amino}-1,2-thiazole-4-carboxamide]
Second: Cc1nsc(Nc2cnc(C(F)(F)F)cn2)c1C(=O)Nc1ccc(F)c(OC[C@@H]2CCCN(CC(F)(F)F)C2)c1 [Example 342, N-(4-fluoro-3-{[(3R)-1-(2,2,2-trifluoroethyl)piperidin-3-yl]methoxy}phenyl)-3-methyl-5-{[5-(trifluoromethyl)pyrazin-2-yl]amino}-1,2-thiazole-4-carboxamide]
The IC50 of the first is 1.8-fold lower: 0.04 µM for the first, 0.072 µM for the second. The first is the more potent here.

Compared with `Cc1nsc(Nc2cnc(C(F)(F)F)cn2)c1C(=O)Nc1ccc(F)c(OC[C@@H]2CCN(CCC(F)(F)F)C2)c1` [Example 340, N-(4-fluoro-3-{[(3R)-1-(3,3,3-trifluoropropyl)pyrrolidin-3-yl]methoxy}phenyl)-3-methyl-5-{[5-(trifluoromethyl)pyrazin-2-yl]amino}-1,2-thiazole-4-carboxamide], `Cc1nsc(Nc2cncc(C(F)(F)F)n2)c1C(=O)Nc1ccc(F)c(OC2CCN(CCC(F)(F)F)CC2)c1` [Example 343, N-(4-fluoro-3-{[1-(3,3,3-trifluoropropyl)piperidin-4-yl]oxy}phenyl)-3-methyl-5-{[6-(trifluoromethyl)pyrazin-2-yl]amino}-1,2-thiazole-4-carboxamide] is 6.4-fold higher in IC50: 0.033 µM for the first, 0.21 µM for the second. The first is the more potent here.

First: Cc1nsc(Nc2cnc(C(F)(F)F)cn2)c1C(=O)Nc1ccc(OCC2CCN(CCF)CC2)nc1 [Example 344, N-(6-{[1-(2-fluoroethyl)piperidin-4-yl]methoxy}pyridin-3-yl)-3-methyl-5-{[5-(trifluoromethyl)pyrazin-2-yl]amino}-1,2-thiazole-4-carboxamide]
Second: Cc1nsc(Nc2cnc(C(F)(F)F)cn2)c1C(=O)Nc1ccc(OCC2CCN(CC(F)F)CC2)nc1 [Example 345, N-(6-{[1-(2,2-difluoroethyl)piperidin-4-yl]methoxy}pyridin-3-yl)-3-methyl-5-{[5-(trifluoromethyl)pyrazin-2-yl]amino}-1,2-thiazole-4-carboxamide]
The IC50 of the first is 10-fold higher: 0.29 µM for the first, 0.028 µM for the second.
